System: rat model of inflammatory arthritis
Assay: rat model of inflammatory arthritis induced by Type II collagen (Trentham et al.)
Format: in vivo
Conditions: arthritic rats' paws, test compound 100 mg/kg i.p. twice daily for 21 days, prednisolone 0.625 mg/kg b.i.d.
Description: The therapeutic effectiveness is assessed in the rat model of inflammatory arthritis described by Trentham et al. (1977). In this model, the arthritis, induced by an intradermal injection of Type II collagen, generally develops in both hind paws and the progression and severity of the lesion are monitored by physical measurements of the malleolar width and ankle extensibility.
The compound of example II in the present specification was administered by intraperitoneal injections at 100 mg/kg twice daily for 21 days commencing seven days after the injection of the disease.
Drugs (Example 1 or prednisolone) and vehicle were administered to groups of 10 rats each. Physical measurements on the rat paws were made weekly for four weeks and consisted of (a) the distance between the medial and lateral malleolus (malleolar width) and (b) the ankle extension which was measured by applying a standard force to the rat paw and measuring the angle formed between the flexor surface of the foot and tibia. Evidence of a therapeutic effect was denoted by a significant reduction in malleolar width and […] a significant increase in ankle extension. Both measurements were carried out on apparatus designed for the purpose. Area-under-the-curve data from these time course experiments was examined by non-parametric statistical analysis. The prednisolone standard was given at a dose of 0.625 mg/kg b.i.d. Prednisolone was chosen as a standard since steroids are known to be effective both clinically in Rheumatoid Arthritis and in animal models of arthritis.

[1] = experiment number 1, area-under-the-curve of weekly measurements over four weeks

| SMILES | MALLEOLAR WIDTH, […] FROM CONTROL [1] | ANGLE EXTENSION, […] FROM CONTROL (experiment number 1) | ANGLE EXTENSION, […] FROM CONTROL (experiment number 2) | MALLEOLAR WIDTH, […] FROM CONTROL (experiment number 2) | ANGLE EXTENSION, […] FROM CONTROL (experiment number 3) | MALLEOLAR WIDTH, […] FROM CONTROL (experiment number 3) | ANGLE EXTENSION, […] FROM CONTROL, MEAN (mean of experiments 1-3) | MALLEOLAR WIDTH, […] FROM CONTROL, MEAN (mean of experiments 1-3) | MALLEOLAR WIDTH, PERCENTAGE CHANGE FROM CONTROL [1] | ANGLE EXTENSION, PERCENTAGE CHANGE FROM CONTROL (experiment number 1) | ANGLE EXTENSION, PERCENTAGE CHANGE FROM CONTROL (experiment number 2) | MALLEOLAR WIDTH, PERCENTAGE CHANGE FROM CONTROL (experiment number 2) | ANGLE EXTENSION, PERCENTAGE CHANGE FROM CONTROL (experiment number 3) | MALLEOLAR WIDTH, PERCENTAGE CHANGE FROM CONTROL (experiment number 3) | ANGLE EXTENSION, PERCENTAGE CHANGE FROM CONTROL, MEAN (mean of experiments 1-3) | MALLEOLAR WIDTH, PERCENTAGE CHANGE FROM CONTROL, MEAN (mean of experiments 1-3) |
| --- | --- | --- | --- | --- | --- | --- | --- | --- | --- | --- | --- | --- | --- | --- | --- | --- |
| C[C@]12C=CC(=O)C=C1CC[C@@H]1[C@@H]2[C@@H](O)C[C@@]2(C)[C@H]1CC[C@]2(O)C(=O)CO [Prednisolone] | 98% | 100% | 96% | 96% | 95% | 97% | 97% | 97% | – | – | – | – | – | – | – | – |
| CNC(=O)[C@H](Cc1ccc(OC)cc1)NC(=O)[C@H](CC(C)C)N[C@H](CCNC(=O)OCc1ccccc1)C(=O)O [Example 1, N-[3-N-(Benzyloxycarbonyl)amino-I-(R)-carboxypropyl]-L-leucyl-O-methyl-L-tyrosine N-Methylamide] | – | – | – | – | – | – | – | – | 65% | 66% | 39% | 43% | 39% | 41% | 48% | 50% |
